# According to PubChem BioAssay (NCI):
#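 Tested at 5 concentrations; 48 h exposure; 96-well plates; endpoints linearly interpolated, else capped at highest concentration. Here, GI50 denotes the concentration required for 50% inhibition of growth. The concentration for full growth arrest is given as TGI.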
# What was measured:
# Assay in all cases: NCI-60 cell line screen, 48 h
# UACC-257 melanoma = test system: UACC-257 melanoma
# T-47D breast = test system: T-47D breast
# KM12 colon = test system: KM12 colon
# OVCAR-8 ovarian = test system: OVCAR-8 ovarian
# RXF 393 renal = test system: RXF 393 renal
# SK-MEL-28 melanoma = test system: SK-MEL-28 melanoma
# MDA-MB-231 breast = test system: MDA-MB-231 breast
# HCT-15 colon = test system: HCT-15 colon
# SK-MEL-2 melanoma = test system: SK-MEL-2 melanoma
# UO-31 renal = test system: UO-31 renal
# U251 CNS = test system: U251 CNS
# SW-620 colon = test system: SW-620 colon
# MCF7 breast = test system: MCF7 breast
# HCT-116 colon = test system: HCT-116 colon
# SF-268 CNS = test system: SF-268 CNS
# MDA-MB-435 = test system: MDA-MB-435
# MALME-3M melanoma = test system: MALME-3M melanoma
# COLO 205 colon = test system: COLO 205 colon
# SNB-19 CNS = test system: SNB-19 CNS
# UACC-62 melanoma = test system: UACC-62 melanoma
# NCI-H460 lung = test system: NCI-H460 lung
# A549 NSCLC = test system: A549 NSCLC
# EKVX NSCLC = test system: EKVX NSCLC
# SF-539 CNS = test system: SF-539 CNS
# OVCAR-3 ovarian = test system: OVCAR-3 ovarian
# BT-549 breast = test system: BT-549 breast
# IGROV1 ovarian = test system: IGROV1 ovarian
# SNB-75 CNS = test system: SNB-75 CNS
# NCI-H23 lung = test system: NCI-H23 lung
# NCI-H226 lung = test system: NCI-H226 lung
# PC-3 prostate = test system: PC-3 prostate
# MOLT-4 leukemia = test system: MOLT-4 leukemia
# A498 renal = test system: A498 renal
# HOP-62 NSCLC = test system: HOP-62 NSCLC
# CAKI-1 renal = test system: CAKI-1 renal
# HT29 colon = test system: HT29 colon
# RPMI-8226 leukemia = test system: RPMI-8226 leukemia
# HS 578T breast = test system: HS 578T breast
# 786-0 renal = test system: 786-0 renal
# HCC-2998 colon = test system: HCC-2998 colon
# OVCAR-4 ovarian = test system: OVCAR-4 ovarian
# OVCAR-5 ovarian = test system: OVCAR-5 ovarian
# SN12C renal = test system: SN12C renal
# ACHN renal = test system: ACHN renal
# SK-OV-3 ovarian = test system: SK-OV-3 ovarian
# TK-10 renal = test system: TK-10 renal
# DU-145 prostate = test system: DU-145 prostate
# LOX IMVI melanoma = test system: LOX IMVI melanoma
# HL-60(TB) leukemia = test system: HL-60(TB) leukemia
# SF-295 CNS = test system: SF-295 CNS
# SR leukemia = test system: SR leukemia
# HOP-92 NSCLC = test system: HOP-92 NSCLC
# CCRF-CEM leukemia = test system: CCRF-CEM leukemia
# NCI-H522 lung = test system: NCI-H522 lung
# NCI/ADR-RES ovarian = test system: NCI/ADR-RES ovarian
# M14 melanoma = test system: M14 melanoma
# SK-MEL-5 melanoma = test system: SK-MEL-5 melanoma
smiles,measurement,setting,value
O=C(O)c1ccc(NCc2nc3cc(Cl)c(Cl)cc3[nH]2)cc1,GI50,UACC-257 melanoma,5.28 µM
same,TGI,UACC-257 melanoma,77.6 µM
same,GI50,T-47D breast,> 100 µM
same,TGI,T-47D breast,> 100 µM
same,GI50,KM12 colon,> 100 µM
same,TGI,KM12 colon,> 100 µM
same,GI50,OVCAR-8 ovarian,> 100 µM
same,TGI,OVCAR-8 ovarian,> 100 µM
same,GI50,RXF 393 renal,> 100 µM
same,TGI,RXF 393 renal,> 100 µM
same,GI50,SK-MEL-28 melanoma,3.77 µM
same,TGI,SK-MEL-28 melanoma,> 100 µM
same,GI50,MDA-MB-231 breast,> 100 µM
same,TGI,MDA-MB-231 breast,> 100 µM
same,GI50,HCT-15 colon,96.9 µM
same,TGI,HCT-15 colon,> 100 µM
same,GI50,SK-MEL-2 melanoma,5.5 µM
same,TGI,SK-MEL-2 melanoma,41.6 µM
same,GI50,UO-31 renal,> 100 µM
same,TGI,UO-31 renal,> 100 µM
same,GI50,U251 CNS,> 100 µM
same,TGI,U251 CNS,> 100 µM
same,GI50,SW-620 colon,> 100 µM
same,TGI,SW-620 colon,> 100 µM
same,GI50,MCF7 breast,6.03 µM
same,TGI,MCF7 breast,> 100 µM
same,GI50,HCT-116 colon,> 100 µM
same,TGI,HCT-116 colon,> 100 µM
same,GI50,SF-268 CNS,> 100 µM
same,TGI,SF-268 CNS,> 100 µM
same,GI50,MDA-MB-435,> 100 µM
same,TGI,MDA-MB-435,> 100 µM
same,GI50,MALME-3M melanoma,0.424 µM
same,TGI,MALME-3M melanoma,1.69 µM
same,GI50,COLO 205 colon,> 100 µM
same,TGI,COLO 205 colon,> 100 µM
same,GI50,SNB-19 CNS,> 100 µM
same,TGI,SNB-19 CNS,> 100 µM
same,GI50,UACC-62 melanoma,> 100 µM
same,TGI,UACC-62 melanoma,> 100 µM
same,GI50,NCI-H460 lung,> 100 µM
same,TGI,NCI-H460 lung,> 100 µM
same,GI50,A549 NSCLC,> 100 µM
same,TGI,A549 NSCLC,> 100 µM
same,GI50,EKVX NSCLC,> 100 µM
same,TGI,EKVX NSCLC,> 100 µM
same,GI50,SF-539 CNS,> 100 µM
same,TGI,SF-539 CNS,> 100 µM
same,GI50,OVCAR-3 ovarian,60.7 µM
same,TGI,OVCAR-3 ovarian,> 100 µM
same,GI50,BT-549 breast,> 100 µM
same,TGI,BT-549 breast,> 100 µM
same,GI50,IGROV1 ovarian,> 100 µM
same,TGI,IGROV1 ovarian,> 100 µM
same,GI50,SNB-75 CNS,> 100 µM
same,TGI,SNB-75 CNS,> 100 µM
same,GI50,NCI-H23 lung,> 100 µM
same,TGI,NCI-H23 lung,> 100 µM
same,GI50,NCI-H226 lung,> 100 µM
same,TGI,NCI-H226 lung,> 100 µM
same,GI50,PC-3 prostate,> 100 µM
same,TGI,PC-3 prostate,> 100 µM
same,GI50,MOLT-4 leukemia,> 100 µM
same,TGI,MOLT-4 leukemia,> 100 µM
same,GI50,A498 renal,> 100 µM
same,TGI,A498 renal,> 100 µM
same,GI50,HOP-62 NSCLC,> 100 µM
same,TGI,HOP-62 NSCLC,> 100 µM
same,GI50,CAKI-1 renal,> 100 µM
same,TGI,CAKI-1 renal,> 100 µM
same,GI50,HT29 colon,> 100 µM
same,TGI,HT29 colon,> 100 µM
same,GI50,RPMI-8226 leukemia,> 100 µM
same,TGI,RPMI-8226 leukemia,> 100 µM
same,GI50,HS 578T breast,> 100 µM
same,TGI,HS 578T breast,> 100 µM
same,GI50,786-0 renal,> 100 µM
same,TGI,786-0 renal,> 100 µM
same,GI50,HCC-2998 colon,72.3 µM
same,TGI,HCC-2998 colon,> 100 µM
same,GI50,OVCAR-4 ovarian,40.9 µM
same,TGI,OVCAR-4 ovarian,> 100 µM
same,GI50,OVCAR-5 ovarian,> 100 µM
same,TGI,OVCAR-5 ovarian,> 100 µM
same,GI50,SN12C renal,> 100 µM
same,TGI,SN12C renal,> 100 µM
same,GI50,ACHN renal,> 100 µM
same,TGI,ACHN renal,> 100 µM
same,GI50,SK-OV-3 ovarian,> 100 µM
same,TGI,SK-OV-3 ovarian,> 100 µM
same,GI50,TK-10 renal,> 100 µM
same,TGI,TK-10 renal,> 100 µM
same,GI50,DU-145 prostate,> 100 µM
same,TGI,DU-145 prostate,> 100 µM
same,GI50,LOX IMVI melanoma,> 100 µM
same,TGI,LOX IMVI melanoma,> 100 µM
same,GI50,HL-60(TB) leukemia,> 100 µM
same,TGI,HL-60(TB) leukemia,> 100 µM
same,GI50,SF-295 CNS,> 100 µM
same,TGI,SF-295 CNS,> 100 µM
same,GI50,SR leukemia,69.6 µM
same,TGI,SR leukemia,> 100 µM
same,GI50,HOP-92 NSCLC,> 100 µM
same,TGI,HOP-92 NSCLC,> 100 µM
same,GI50,CCRF-CEM leukemia,> 100 µM
same,TGI,CCRF-CEM leukemia,> 100 µM
same,GI50,NCI-H522 lung,66.2 µM
same,TGI,NCI-H522 lung,> 100 µM
same,GI50,NCI/ADR-RES ovarian,> 100 µM
same,TGI,NCI/ADR-RES ovarian,> 100 µM
same,GI50,M14 melanoma,> 100 µM
same,TGI,M14 melanoma,> 100 µM
same,GI50,SK-MEL-5 melanoma,93.4 µM
same,TGI,SK-MEL-5 melanoma,> 100 µM
